Measurements as given in US11780826B2 (Amgen Inc., priority 2017, dated 2023).

How the values were obtained:
[1] = system: Bovine cardiac myofibrils; assay: In vitro model of dose-dependent myofibril ATPase modulation (AC1.4, pyruvate kinase/lactate dehydrogenase-coupled ATPase assay at pCa25); assay type: biochemical; details: concentration at which ATPase activity was 1.4-fold higher than the bottom of the dose curve, mean of a minimum of two independent tests
Method in brief: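 We measure calcium-buffered ATPase activity of detergent-skinned bovine cardiac myofibrils at pH 6.80 and 22° C with 1 mM ATP, using a PK/LDH-coupled NADH readout at 340 nm. Values come from four-parameter dose-response fits, averaged over at least two independent runs.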

Male CD rats [2] = assay: Pressure-volume loop (PV Loop) protocol (invasive hemodynamics): ejection fraction (% EF) during intravenous infusion, MEE; assay type: in vivo; design: unit not given here; details: exposure at 10% increase in % EF from baseline, rat, corrected for rat plasma protein binding
Description: (§1) Formulations: A compound as disclosed herein and water were admixed together. Either 30% wt/vol or 40% wt/vol of hydroxypropyl beta-cyclodextrin (HPBCD) was added and the mixture stirred until dissolved.
(§2) Echocardiography/ultrasound protocol: Serial echocardiography was conducted with the aid of an imaging system suitable for rodent cardiac ultrasound. Male CD rats (6-10 weeks of age; 6-12 animals per group) were cannulated with a jugular vein catheter to enable delivery of test article by intravenous infusion. […] An imaging probe was fixed in position to acquire short axis (SAX), motion (M)—mode images of the left cardiac ventricle at the level of the papillary muscles. Baseline data was acquired prior to initiating test article delivery. Test article (compound as disclosed herein in a HPBCD formulation), or vehicle control, was delivered with the aid of an infusion pump connected to the jugular vein catheter. Infusion rate of test article was increased at 15 min intervals, to a maximum of 5 mL/kg/hr. Ultrasound images were acquired at 5 min intervals. Additionally whole blood (not exceeding 10 uL) was collected via a tail nick at the same 5 min intervals for subsequent exposure determination.
(§3) Whole blood samples were analyzed by protein precipitation and liquid chromatography tandem mass spectrometry (LC-MS/MS) using multiple reaction monitoring (MRM) in positive ionization mode. The lower limit of quantitation (LLOQ) in the assay was 1 ng/mL and the upper limit of quantitation (ULOQ) was 10,000 ng/mL.
Pressure-volume loop (PV Loop) protocol (invasive hemodynamics): Left ventricular catheterization with a pressure-volume transducing catheter was applied as an alternative method to derive pharmacodynamic endpoints. A pressure volume conductance catheter was inserted via the left carotid artery and advanced into the left ventricle. The electrical signal emitted from the volume catheter was used to derive measures of relative volume at 5 min intervals. From these measures, left ventricular end diastolic volume (LVEDV) and left ventricular end systolic volume (LVESV) were derived. Ejection fraction was then derived using the following formula: % EF=((LVEDV−LVESV)/LVEDV)*100. Minimally efficacious exposure (MEE) was defined as the exposure at which a 10% increase in % EF from baseline was observed. The MEE was derived by plotting assayed exposures against % EF and using non-linear curve fitting (log(exposure) vs. % EF; variable slope, 4 parameters). Response to vehicle at each time point was averaged and all test article responses were normalized to baseline and subtracted from time matched (averaged) vehicle responses. Animal preparation, vehicle/test article delivery and blood sampling for exposure determination was as described in Echocardiography/ultrasound protocol.

Male CD rats [3] = assay: Echocardiography/ultrasound protocol: fractional shortening (% FS) during intravenous infusion, MEE; assay type: in vivo; design: unit not given here; details: rat, formulation 40% HPbCD, corrected for rat plasma protein binding
Description: as §1, §2, §3
Offline data analysis of the SAX M-mode ultrasound images was conducted to derive measures of left ventricular end diastolic diameter (LVEDD), left ventricular end systolic diameter (LVESD) and subsequent calculation of fractional shortening (% FS) using the following formula: % FS=((LVEDD−LVESD)/LVEDD)*100. Minimally efficacious exposure (MEE) was defined as the exposure at which a 10% increase in % FS from baseline was observed. The MEE was derived by plotting assayed exposures against % FS and using non-linear curve fitting (log(exposure) vs. % FS; variable slope, 4 parameters). Response to vehicle at each time point was averaged and all test article responses were normalized to baseline and subtracted from time matched (averaged) vehicle responses.

[4] = Echocardiography, exposure at 10% increase in % FS from baseline

Structure (SMILES)	AC1.4 [1]	MEE* (unbound), minimally efficacious exposure (Male CD rats [2]; formulation 40% HPbCD pH 4 NaOH)	MEE* (unbound), minimally efficacious exposure (Male CD rats [2]; formulation 40% HPbCD)	MEE* (unbound), minimally efficacious exposure (Male CD rats [3]; [4])	MEE* (unbound), minimally efficacious exposure (Male CD rats [3]; Echocardiography and PV Loop (both protocols named for this value))
N#CC1CN(S(=O)(=O)N2CCC[C@H](C(=O)N3CCC[C@@H]3C(=O)NCc3ccc(C(F)(F)F)cc3)C2)C1 [Example 67, 1-(((3S)-1-((3-cyano-1-azetidinyl)sulfonyl)-3-piperidinyl)carbonyl)-N-(4-(trifluoromethyl)benzyl)-D-prolinamide]	0.07786 µM	1.05			
N#CC1CN(S(=O)(=O)N2CCC[C@H](C(=O)N3CCC[C@@H]3C(=O)NCc3ccc(Cl)c(Cl)c3)C2)C1 [Example 91, 1-(((3S)-1-((3-cyano-1-azetidinyl)sulfonyl)-3-piperidinyl)carbonyl)-N-(3,4-dichlorobenzyl)-D-prolinamide]	0.1384 µM		0.04		
CS(=O)(=O)c1cccc(C(=O)N2CCCC[C@@H]2C(=O)N[C@@H](c2cc(F)c(Cl)cc2F)C2CC2)c1 [Example 113, (2R)-N-((R)-(4-chloro-2,5-difluorophenyl)(cyclopropyl)methyl)-1-(3-(methylsulfonyl)benzoyl)-2-piperidinecarboxamide]	0.1763 µM		0.04		
C[C@@H](NC(=O)[C@H]1CCCN1C(=O)[C@H]1CCCN(S(=O)(=O)N2CC(C#N)C2)C1)c1ccc(Cl)cc1 [Example 135, N-((1R)-1-(4-chlorophenyl)ethyl)-1-(((3S)-1-((3-cyano-1-azetidinyl)sulfonyl)-3-piperidinyl)carbonyl)-D-prolinamide]	0.2215 µM		0.05		
CS(=O)(=O)c1cncc(C(=O)N2[C@@H](C(=O)N[C@@H](c3cc(F)c(C(F)(F)F)cc3F)C3CC3)C[C@H]3C[C@H]32)c1 [Example 214, (1R,3R,5R)—N—((R)-cyclopropyl(2,5-difluoro-4-(trifluoromethyl)phenyl)methyl)-2-(5-(methylsulfonyl)nicotinoyl)-2-azabicyclo[3.1.0]hexane-3-carboxamide]	0.4665 µM			0.12	
CS(=O)(=O)c1cccc(C(=O)N2CCC[C@@H]2C(=O)N[C@@H](c2ccc(C(F)(F)F)cc2F)C2CC2)c1 [Example 364, (R)—N—((R)-cyclopropyl(2-fluoro-4-(trifluoromethyl)phenyl)methyl)-1-(3-(methylsulfonyl)benzoyl)pyrrolidine-2-carboxamide]	1.04 µM				0.27

Now from value to compound, other results behind:

AC1.4 [1]	Structure (SMILES)	MEE* (unbound), minimally efficacious exposure (Male CD rats [2]; formulation 40% HPbCD pH 4 NaOH)	MEE* (unbound), minimally efficacious exposure (Male CD rats [2]; formulation 40% HPbCD)	MEE* (unbound), minimally efficacious exposure (Male CD rats [3]; [4])	MEE* (unbound), minimally efficacious exposure (Male CD rats [3]; Echocardiography and PV Loop (both protocols named for this value))
0.4083 µM	N#CC1CN(S(=O)(=O)N2CCN[C@H](C(=O)N3CCC[C@@H]3C(=O)NCc3ccc(C(F)(F)F)cc3F)C2)C1 [Example 200, 1-(((2S)-4-((3-cyano-1-azetidinyl)sulfonyl)-2-piperazinyl)carbonyl)-N-(2-fluoro-4-(trifluoromethyl)benzyl)-D-prolinamide]		1.02		
0.6461 µM	N#CC1CN(S(=O)(=O)N2CCC[C@H](C(=O)N3CCC[C@@H]3C(=O)NCc3ccc(C(F)F)cc3)C2)C1 [Example 261, 1-(((3S)-1-((3-cyano-1-azetidinyl)sulfonyl)-3-piperidinyl)carbonyl)-N-(4-(difluoromethyl)benzyl)-D-prolinamide]		0.16		
0.7092 µM	CS(=O)(=O)c1cc(C(=O)N2[C@@H](C(=O)N[C@@H](c3cc(F)c(C(F)(F)F)cc3F)C3CC3)C[C@H]3C[C@H]32)ccn1 [Example 279, (1R,3R,5R)—N—((R)-cyclopropyl(2,5-difluoro-4-(trifluoromethyl)phenyl)methyl)-2-(2-(methylsulfonyl)isonicotinoyl)-2-azabicyclo[3.1.0]hexane-3-carboxamide]			0.68	
0.7212 µM	N#CC1CN(S(=O)(=O)N2CCC[C@H](C(=O)N3CCC[C@@H]3C(=O)NCc3cc(F)cc(F)c3)C2)C1 [Example 287, 1-(((3S)-1-((3-cyano-1-azetidinyl)sulfonyl)-3-piperidinyl)carbonyl)-N-(3,5-difluorobenzyl)-D-prolinamide]		0.47		
0.7943 µM	C[C@@H](NC(=O)[C@H]1CCCN1C(=O)[C@H]1CCCN(S(=O)(=O)N2CC(C#N)C2)C1)c1ccc(F)c(F)c1 [Example 301, 1-(((3S)-1-((3-cyano-1-azetidinyl)sulfonyl)-3-piperidinyl)carbonyl)-N-((1R)-1-(3,4-difluorophenyl)ethyl)-D-prolinamide]		0.19		
0.846 µM	CS(=O)(=O)c1cc(C(=O)N2[C@@H](C(=O)N[C@@H](c3cc(F)c(Cl)cc3F)C3CC3)C[C@H]3C[C@H]32)ccn1 [Example 314, (1R,3R,5R)—N—((R)-(4-chloro-2,5-difluorophenyl)(cyclopropyl)methyl)-2-(2-(methylsulfonyl)isonicotinoyl)-2-azabicyclo[3.1.0]hexane-3-carboxamide]			0.16	
0.8883 µM	C[C@@H](NC(=O)[C@H]1CCCN1C(=O)[C@H]1CCCN(S(=O)(=O)N2CC(C#N)C2)C1)c1ccc(F)cc1F [Example 325, 1-(((3S)-1-((3-cyano-1-azetidinyl)sulfonyl)-3-piperidinyl)carbonyl)-N-((1R)-1-(2,4-difluorophenyl)ethyl)-D-prolinamide]		0.41		
1.381 µM	CS(=O)(=O)c1cccc(C(=O)N2C[C@@H](F)C[C@@H]2C(=O)N[C@@H](c2ccc(C(F)(F)F)cc2F)C2CC2)c1 [Example 402, (2R,4S)—N—((R)-cyclopropyl(2-fluoro-4-(trifluoromethyl)phenyl)methyl)-4-fluoro-1-(3-(methylsulfonyl)benzoyl)pyrrolidine-2-carboxamide]		0.18		
